Data taken from patent publication US12077503B2, “Substituted cyclic amides and their use as herbicides” (FMC CORPORATION, priority 2015, dated 2024).

What was measured:
Assay type in all cases: in vivo
Kochia (Kochia scoparia) [1] = assay: Test A preemergence; conditions: Bassia scoparia, pre-emergence, 240 h
Summary of the method: (§1)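 Compounds were formulated in a non-phytotoxic solvent mixture with surfactant and applied as a preemergence directed soil spray after seeding, or sprayed postemergence over plants 2 to 10 cm tall at the one- to two-leaf stage. Evaluation after about 10 d compared treated with untreated controls, using a scale from 0 (no effect) to 100 (complete control).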

[2] = system: barnyardgrass (Echinochloa crus-galli); assay: Test A preemergence; conditions: Echinochloa crus-galli, pre-emergence, 240 h
Summary of the method: as §1

[3] = system: giant foxtail (Setaria faberii); assay: Test A preemergence; conditions: Setaria faberi, pre-emergence, 240 h
Summary of the method: as §1

[4] = system: pigweed (Amaranthus retroflexus); assay: Test A preemergence; conditions: Amaranthus retroflexus, pre-emergence, 240 h
[5] = system: ragweed (common ragweed, Ambrosia elatior); assay: Test A preemergence; conditions: Ambrosia artemisiifolia, pre-emergence, 240 h
Summary of the method: as §1

[6] = system: ryegrass, Italian (Italian ryegrass, Lolium multiflorum); assay: Test A preemergence; conditions: Lolium multiflorum, pre-emergence, 240 h, Preemergence, 125 g ai/ha; 0 to 100 scale (0 no effect, 100 complete control); read-out: Plant response rating, Ryegrass, Italian
Summary of the method: as §1

[7] = system: Galium (catchweed bedstraw, Galium aparine); assay: Test A postemergence; conditions: Galium, post-emergence, 240 h, Postemergence
Summary of the method: as §1

Kochia (Kochia scoparia) [8] = assay: Test A postemergence; conditions: Bassia scoparia, post-emergence, 240 h, Postemergence
Summary of the method: as §1

[9] = system: barnyardgrass (Echinochloa crus-galli); assay: Test A postemergence; conditions: Echinochloa crus-galli, post-emergence, 240 h, Postemergence
Summary of the method: as §1

[10] = system: blackgrass (Alopecurus myosuroides); assay: Test A postemergence; conditions: Alopecurus myosuroides, post-emergence, 240 h, Postemergence
Summary of the method: as §1

corn (Zea mays) = assay: Test A postemergence; conditions: Zea mays, post-emergence, 240 h, Postemergence
Summary of the method: as §1

[11] = system: giant foxtail (Setaria faberii); assay: Test A postemergence; conditions: Setaria faberi, post-emergence, 240 h, Postemergence
Summary of the method: as §1

[12] = system: pigweed (Amaranthus retroflexus); assay: Test A postemergence; conditions: Amaranthus retroflexus, post-emergence, 240 h, Postemergence
Summary of the method: as §1

[13] = system: ragweed (common ragweed, Ambrosia elatior); assay: Test A postemergence; conditions: Ambrosia artemisiifolia, post-emergence, 240 h, Postemergence
Summary of the method: as §1

[14] = system: wheat (Triticum aestivum); assay: Test A postemergence; conditions: Triticum aestivum, post-emergence, 240 h, Postemergence
Summary of the method: as §1

## CN1C[C@H](c2ccc3c(c2)CCO3)[C@@H](C(=O)Nc2cccc(F)c2F)C1=O [Compound 1324]
Kochia (Kochia scoparia) [1]; 500 g ai/ha, preemergence, 0 to 100 scale where 0 is no effect and 100 is complete control, read-out: Kochia plant response rating
  pest or weed control at 500 g/ha: 90%
Kochia (Kochia scoparia) [1]; Preemergence, 125 g ai/ha, 0 to 100 scale (0 no effect, 100 complete control), read-out: Plant response rating, Kochia
  pest or weed control at 125 g/ha: 90%
[2]; 500 g ai/ha, preemergence, 0 to 100 scale where 0 is no effect and 100 is complete control, read-out: Barnyardgrass plant response rating
  pest or weed control at 500 g/ha: 100%
[2]; Preemergence, 125 g ai/ha, 0 to 100 scale (0 no effect, 100 complete control), read-out: Plant response rating, Barnyardgrass
  pest or weed control at 125 g/ha: 90%
[3]; 500 g ai/ha, preemergence, 0 to 100 scale where 0 is no effect and 100 is complete control, read-out: Foxtail, Giant plant response rating
  pest or weed control at 500 g/ha: 100%
[3]; Preemergence, 125 g ai/ha, 0 to 100 scale (0 no effect, 100 complete control), read-out: Plant response rating, Foxtail, Giant
  pest or weed control at 125 g/ha: 90%
[4]; 500 g ai/ha, preemergence, 0 to 100 scale where 0 is no effect and 100 is complete control, read-out: Pigweed plant response rating
  pest or weed control at 500 g/ha: 40%
[4]; Preemergence, 125 g ai/ha, 0 to 100 scale (0 no effect, 100 complete control), read-out: Plant response rating, Pigweed
  pest or weed control at 125 g/ha: 0%
[5]; 500 g ai/ha, preemergence, 0 to 100 scale where 0 is no effect and 100 is complete control, read-out: Ragweed plant response rating
  pest or weed control at 500 g/ha: 90%
[5]; Preemergence, 125 g ai/ha, 0 to 100 scale (0 no effect, 100 complete control), read-out: Plant response rating, Ragweed
  pest or weed control at 125 g/ha: 90%
[6]
  pest or weed control at 125 g/ha: 20%
[7]; 125 g ai/ha, visual rating about 10 d after treatment, read-out: Galium plant response rating (0 to 100 scale)
  pest or weed control at 125 g/ha: 30%
[7]; 500 g ai/ha, visual injury, 0 to 100 scale (0 no effect, 100 complete control), approx. 10 d, read-out: Plant response rating, Galium
  pest or weed control at 500 g/ha: 50%
Kochia (Kochia scoparia) [8]; 125 g ai/ha, visual rating about 10 d after treatment, read-out: Kochia plant response rating (0 to 100 scale)
  pest or weed control at 125 g/ha: 30%
Kochia (Kochia scoparia) [8]; 500 g ai/ha, visual injury, 0 to 100 scale (0 no effect, 100 complete control), approx. 10 d, read-out: Plant response rating, Kochia
  pest or weed control at 500 g/ha: 70%
[9]; 125 g ai/ha, visual rating about 10 d after treatment, read-out: Barnyardgrass plant response rating (0 to 100 scale, 0 no effect, 100 complete control)
  pest or weed control at 125 g/ha: 90%
[9]; 500 g ai/ha, visual injury, 0 to 100 scale (0 no effect, 100 complete control), approx. 10 d, read-out: Plant response rating, Barnyardgrass
  pest or weed control at 500 g/ha: 90%
[10]; 125 g ai/ha, visual rating about 10 d after treatment, read-out: Blackgrass plant response rating (0 to 100 scale)
  pest or weed control at 125 g/ha: 40%
[10]; 500 g ai/ha, visual injury, 0 to 100 scale (0 no effect, 100 complete control), approx. 10 d, read-out: Plant response rating, Blackgrass
  pest or weed control at 500 g/ha: 60%
Corn (Zea mays); 125 g ai/ha, visual rating about 10 d after treatment, read-out: Corn plant response rating (0 to 100 scale)
  plant injury at 125 g/ha: 60%
Corn (Zea mays); 500 g ai/ha, visual injury, 0 to 100 scale (0 no effect, 100 complete control), approx. 10 d
  Corn plant response rating (crop injury, 0 = no effect, 100 = complete kill) at 500 g/ha: 80%
[11]; 125 g ai/ha, visual rating about 10 d after treatment, read-out: Foxtail, Giant plant response rating (0 to 100 scale)
  pest or weed control at 125 g/ha: 90%
[11]; 500 g ai/ha, visual injury, 0 to 100 scale (0 no effect, 100 complete control), approx. 10 d, read-out: Plant response rating, Foxtail, Giant
  pest or weed control at 500 g/ha: 90%
[12]; 125 g ai/ha, visual rating about 10 d after treatment, read-out: Pigweed plant response rating (0 to 100 scale)
  pest or weed control at 125 g/ha: 0%
[12]; 500 g ai/ha, visual injury, 0 to 100 scale (0 no effect, 100 complete control), approx. 10 d, read-out: Plant response rating, Pigweed
  pest or weed control at 500 g/ha: 20%
[13]; 125 g ai/ha, visual rating about 10 d after treatment, read-out: Ragweed plant response rating (0 to 100 scale)
  pest or weed control at 125 g/ha: 20%
[13]; 500 g ai/ha, visual injury, 0 to 100 scale (0 no effect, 100 complete control), approx. 10 d, read-out: Plant response rating, Ragweed
  pest or weed control at 500 g/ha: 40%
[14]; 125 g ai/ha, visual rating about 10 d after treatment, read-out: Wheat plant response rating (0 to 100 scale)
  plant injury at 125 g/ha: 30%
[14]; 500 g ai/ha, visual injury, 0 to 100 scale (0 no effect, 100 complete control), approx. 10 d, read-out: Plant response rating, Wheat
  plant injury at 500 g/ha: 70%
